In patent publication US6417384B1, “Radioiodinated phospholipid ether analogs and methods of using the same” (The Regents of the University of Michigan, priority 1999, dated 2002):

How the values were obtained:
[1] = system: rats bearing Walker-256 tumor; experiment: Biodistribution studies with Walker-256 carcinosarcoma; assay type: in vivo, rat
Protocol: The three radiolabelled compounds illustrated in FIG. 5, including the improved C-18 analog 18-(p-iodophenyl)octadecyl phosphocholine (Compound XVI) described in Example 2, were prepared and administered to two sets of female Sprague Dawley rats (Charles River, Portage, Mich.). One normal set was used as a control, and one set was inoculated with Walker-256 carcinosarcoma cells (5×10^6 cells) in 0.2 ml saline in the right hindlimb. The Walker carcinoma cell line was provided by Dr. James Varani of the Department of Pathology at the University of Michigan, and is an accepted cell line representative of effect in humans. See, e.g. Tayck et al., “Influence of the Walker 256 Carcinosarcoma on Muscle, Tumor, and Whole-Body Protein Synthesis and Growth Rate in the Cancer-Bearing Rat, Cancer Res. 46:5649-54 (1986).
The animals were used 6-8 days later when the tumor weight averaged 10 g. The radiolabelled compounds were dissolved in absolute ethanol (50-500 μl) and Tween-20 (0.1 ml/mg of compound) was added to the solution. Ethanol was removed by evaporation under a stream of nitrogen. Physiological saline or sterile water was added, to give a 2-3% Tween-20 solution which was subsequently mixed by vortex. The solubilized radiolabelled compounds (5-10 μCi, 0.3 ml) were administered intravenously via the tail vein to tumor bearing rats, and the animals were sacrificed by exsanguination while under ether anesthesia at the various time points. Blood samples were collected through cardiac puncture and selected tissues (liver, kidney, etc.) were removed, trimmed, blotted to remove excess blood and weighed. Large organs were thoroughly minced with scissors to obtain random representative tissue samples.
For the biodistribution experiments with 12-(p-iodophenyl)dodecyl phosphocholine, weighed tissue samples were counted with a well scintillation counter (85% counting efficiency). The concentration of radioactivity in each tissue was expressed as a percentage of administered dose per gram of tissue.
Tissue distribution was assessed at various times following administration of the radioiodinated chain length isomers. The results are expressed as the mean % administered dose per gram±SEM (% Dose/g±SEM).

[2] = system: rats bearing Dunning (MATLyLu) prostate tumors; experiment: Biodistribution studies with Dunning prostate tumor; assay type: in vivo, rat; details: for mean % administered dose per gram, Adrenal / mean % administered dose per gram, Blood / mean % administered dose per gram, Kidney / mean % administered dose per gram, Liver / mean % administered dose per gram, Lung / mean % administered dose per gram, Plasma / mean % administered dose per gram, Tumor: i.v., Dunning MAT-LyLu prostate tumor-bearing rats, mean ± SEM
Protocol: The three radiolabelled compounds illustrated in FIGS. 7A-7C, including the improved C-18 analogs 18-(p-iodophenyl)octadecyl phosphocholine (Compound XVI—FIG. 7B) and 1-O-[18-(p-iodophenyl)octadecyl]-1,3-propanediol-3-phosphocholine (Compound XIV—FIG. 7C) described in Examples 2 and 3, respectively, were prepared and administered to two sets of male Copenhagen rats (Harlan Sprague-Dawley, Indianapolis, Ind.). One group of normal animals was used as a control, and another group was inoculated with Dunning prostate tumor cells (1×10^6 MAT-LyLu cells) in 0.2 ml saline in the right hindlimb. The MAT-LyLu subline of the Dunning (R-3327) adenocarcinoma prostate tumor was provided by Dr. Ken Pienta of the Department of Urology at the University of Michigan, and is an accepted cell line representative of effect in humans. See, e.g., Pienta et al., “Inhibition of Spontaneous Metastasis in a Rat Prostrate Cancer Model by Oral Administration of Modified Citrus Pectin, J. Natl. Cancer Inst. 87:348-53 (1995).
The animals were maintained with free access to food and water until day 8-10. The radioiodinated phospholipid ether analog formulated in 2% Tween 20—sterile water (5-10 μCi, 0.3-0.4 ml, described above in Example 6) was administered intravenously into the tail vein of the tumor-bearing animals under metofane anesthesia. The animals were euthanized at selected time points after injection (n=3 per time point) and samples of blood, plasma and a variety of tissues including tumor and prostate are collected and analyzed for radioiodine content. Biodistribution values are calculated as the mean of the individual % administered dose per gram of tissue and % dose per organ values.

[3] = female, Sprague Dawley, rat, in vivo, iv, 24 h
[4] = female, Sprague Dawley, rat, in vivo, iv, 48 h

Q: What does the source list for `C[N+](C)(C)CCOP(=O)([O-])OCCCCCCCCCCCCCCCc1ccc(I)cc1` [C-15 Analog, 15-(p-iodophenyl)pentadecyl phosphocholine]?
A: mean % administered dose per gram, Adrenal ([1]; Adrenal, 24 hr, i.v., Walker-256 tumor-bearing rats, mean ± SEM): 0.73 ± 0.08 % Dose/g; mean % administered dose per gram, Adrenal ([1]; Adrenal, 48 hr, i.v., Walker-256 tumor-bearing rats, mean ± SEM): 0.49 ± 0.05 % Dose/g; mean % administered dose per gram, Blood ([1]; Blood, 24 hr, i.v., Walker-256 tumor-bearing rats, mean ± SEM): 0.16 ± 0.01 % Dose/g; mean % administered dose per gram, Blood ([1]; Blood, 48 hr, i.v., Walker-256 tumor-bearing rats, mean ± SEM): 0.14 ± 0.01 % Dose/g; blood levels ([1]; Blood, 120 hours, i.v., Walker-256 tumor-bearing rats, mean ± SEM): 0.07±0.01 % Dose/g; mean % administered dose per gram, Duodenum ([1]; Duodenum, 24 hr, i.v., Walker-256 tumor-bearing rats, mean ± SEM): 1.13 ± 0.13 % Dose/g; mean % administered dose per gram, Duodenum ([1]; Duodenum, 48 hr, i.v., Walker-256 tumor-bearing rats, mean ± SEM): 1.38 ± 0.24 % Dose/g; mean % administered dose per gram, Kidney ([1]; Kidney, 24 hr, i.v., Walker-256 tumor-bearing rats, mean ± SEM): 1.14 ± 0.11 % Dose/g; mean % administered dose per gram, Kidney ([1]; Kidney, 48 hr, i.v., Walker-256 tumor-bearing rats, mean ± SEM): 0.91 ± 0.04 % Dose/g; mean % administered dose per gram, Liver ([1]; Liver, 24 hr, i.v., Walker-256 tumor-bearing rats, mean ± SEM): 1.29 ± 0.10 % Dose/g; mean % administered dose per gram, Liver ([1]; Liver, 48 hr, i.v., Walker-256 tumor-bearing rats, mean ± SEM): 0.83 ± 0.04 % Dose/g; mean % administered dose per gram, Lung ([1]; Lung, 24 hr, i.v., Walker-256 tumor-bearing rats, mean ± SEM): 0.97 ± 0.03 % Dose/g; mean % administered dose per gram, Lung ([1]; Lung, 48 hr, i.v., Walker-256 tumor-bearing rats, mean ± SEM): 0.81 ± 0.04 % Dose/g; mean % administered dose per gram, Plasma ([1]; Plasma, 24 hr, i.v., Walker-256 tumor-bearing rats, mean ± SEM): 0.16 ± 0.01 % Dose/g; mean % administered dose per gram, Plasma ([1]; Plasma, 48 hr, i.v., Walker-256 tumor-bearing rats, mean ± SEM): 0.15 ± 0.03 % Dose/g; mean % administered dose per gram, Tumor ([1]; Tumor, 24 hr, i.v., Walker-256 tumor-bearing rats, mean ± SEM): 1.47 ± 0.10 % Dose/g; mean % administered dose per gram, Tumor ([1]; Tumor, 48 hr, i.v., Walker-256 tumor-bearing rats, mean ± SEM): 1.65 ± 0.23 % Dose/g

Q: For `C[N+](C)(C)CCOP(=O)([O-])OCCCCCCCCCCCCCCCCCCc1ccc(I)cc1` [Compound XVI, 18-(p-iodophenyl)octadecyl phosphocholine], which “mean % administered dose per gram, Adrenal” value [1, 3] is on record?
A: Its value is 0.85 ± 0.04 % Dose/g.

Q: What about the “mean % administered dose per gram, Blood” value [1, 3] of the same compound?
A: The value was 0.96 ± 0.00 % Dose/g.

Q: What about the “mean % administered dose per gram, Duodenum” value [1, 3] of the same compound?
A: The value was 0.69 ± 0.05 % Dose/g.

Q: And the “mean % administered dose per gram, Kidney” value [1, 3]?
A: The value was 0.65 ± 0.00 % Dose/g.

Q: And the “mean % administered dose per gram, Liver” value [1, 3]?
A: Its value is 0.55 ± 0.04 % Dose/g.

Q: What about the “mean % administered dose per gram, Lung” value [1, 3] of the same compound?
A: The value was 0.88 ± 0.06 % Dose/g.

Q: And the “mean % administered dose per gram, Plasma” value [1, 3]?
A: The value was 1.47 ± 0.03 % Dose/g.

Q: What about the “mean % administered dose per gram, Tumor” value [1, 3] of the same compound?
A: Its value is 0.98 ± 0.07 % Dose/g.

Q: And the “mean % administered dose per gram, Adrenal” value [1, 4]?
A: Its value is 0.92 ± 0.06 % Dose/g.

Q: And the “mean % administered dose per gram, Blood” value [1, 4]?
A: Its value is 0.64 ± 0.07 % Dose/g.

Q: And the “mean % administered dose per gram, Duodenum” value [1, 4]?
A: Its value is 0.68 ± 0.04 % Dose/g.

Q: What about the “mean % administered dose per gram, Kidney” value [1, 4] of the same compound?
A: The value was 0.59 ± 0.04 % Dose/g.

Q: What about the “mean % administered dose per gram, Liver” value [1, 4] of the same compound?
A: The value was 0.59 ± 0.05 % Dose/g.

Q: And the “mean % administered dose per gram, Lung” value [1, 4]?
A: The value was 0.76 ± 0.07 % Dose/g.

Q: What about the “mean % administered dose per gram, Plasma” value [1, 4] of the same compound?
A: The value was 0.95 ± 0.11 % Dose/g.

Q: And the “mean % administered dose per gram, Tumor” value [1, 4]?
A: The value was 1.14 ± 0.01 % Dose/g.

Q: And the blood levels ([1]; female, Sprague Dawley, rat, in vivo, iv, 120 h)?
A: The blood levels was 0.60±0.01 % Dose/g.

Q: What about the “clearance from non-target tissues” value ([1]; rat, in vivo) of the same compound?
A: The value was “much more rapid than from tumor”.

Q: And the “level in the tumor over a longer time period” value ([1]; rat, in vivo)?
A: The value was “increased significantly”.

Q: And the “retention in the circulation” value ([1]; rat, in vivo)?
A: Its value is “retained in the circulation to a much greater extent than the other chain length isomers surveyed”.

Q: And the “mean % administered dose per gram, Adrenal” value ([2]; 24 hr)?
A: Its value is 0.88 ± 0.02 % Dose/g.

Q: What about the “mean % administered dose per gram, Adrenal” value ([2]; 48 hr) of the same compound?
A: The value was 0.76 ± 0.03 % Dose/g.

Q: What about the “mean % administered dose per gram, Blood” value ([2]; 24 hr) of the same compound?
A: The value was 0.88 ± 0.04 % Dose/g.

Q: What about the “mean % administered dose per gram, Blood” value ([2]; 48 hr) of the same compound?
A: Its value is 0.64 ± 0.05 % Dose/g.

Q: What about the “mean % administered dose per gram, Kidney” value ([2]; 24 hr) of the same compound?
A: The value was 0.59 ± 0.02 % Dose/g.

Q: And the “mean % administered dose per gram, Kidney” value ([2]; 48 hr)?
A: Its value is 0.51 ± 0.03 % Dose/g.

Q: And the “mean % administered dose per gram, Liver” value ([2]; 24 hr)?
A: Its value is 0.57 ± 0.02 % Dose/g.

Q: What about the “mean % administered dose per gram, Liver” value ([2]; 48 hr) of the same compound?
A: Its value is 0.40 ± 0.03 % Dose/g.

Q: And the “mean % administered dose per gram, Lung” value ([2]; 24 hr)?
A: Its value is 0.84 ± 0.01 % Dose/g.

Q: And the “mean % administered dose per gram, Lung” value ([2]; 48 hr)?
A: Its value is 0.69 ± 0.05 % Dose/g.

Q: And the “mean % administered dose per gram, Plasma” value ([2]; 24 hr)?
A: The value was 1.43 ± 0.06 % Dose/g.

Q: And the “mean % administered dose per gram, Plasma” value ([2]; 48 hr)?
A: The value was 0.99 ± 0.11 % Dose/g.

Q: What about the “mean % administered dose per gram, Tumor” value ([2]; 24 hr) of the same compound?
A: The value was 0.75 ± 0.04 % Dose/g.

Q: What about the “mean % administered dose per gram, Tumor” value ([2]; 48 hr) of the same compound?
A: Its value is 0.81 ± 0.04 % Dose/g.

Q: And the “tumor levels relative to the shorter chain analog” value ([2]; versus C-12 analog, Dunning prostate tumor model)?
A: The value was “more than twice as high”.

Q: Which “mean % administered dose per gram, Adrenal” value ([2]; 24 hr) does the source give for `C[N+](C)(C)CCOP(=O)([O-])OCCCOCCCCCCCCCCCCCCCCCCc1ccc(I)cc1` [Compound XIV, 1-O-[18-(p-Iodophenyl)octadecyl]-1,3-propanediol-3-phosphocholine] here?
A: The value was 1.37 ± 0.03 % Dose/g.

Q: What about the “mean % administered dose per gram, Adrenal” value ([2]; 48 hr) of the same compound?
A: Its value is 1.04 ± 0.07 % Dose/g.

Q: And the “mean % administered dose per gram, Blood” value ([2]; 24 hr)?
A: Its value is 0.41 ± 0.01 % Dose/g.

Q: What about the “mean % administered dose per gram, Blood” value ([2]; 48 hr) of the same compound?
A: The value was 0.29 ± 0.01 % Dose/g.

Q: And the “mean % administered dose per gram, Kidney” value ([2]; 24 hr)?
A: The value was 0.73 ± 0.02 % Dose/g.

Q: And the “mean % administered dose per gram, Kidney” value ([2]; 48 hr)?
A: Its value is 0.65 ± 0.01 % Dose/g.

Q: And the “mean % administered dose per gram, Liver” value ([2]; 24 hr)?
A: The value was 0.57 ± 0.02 % Dose/g.

Q: What about the “mean % administered dose per gram, Liver” value ([2]; 48 hr) of the same compound?
A: Its value is 0.36 ± 0.01 % Dose/g.

Q: And the “mean % administered dose per gram, Lung” value ([2]; 24 hr)?
A: The value was 0.89 ± 0.07 % Dose/g.

Q: And the “mean % administered dose per gram, Lung” value ([2]; 48 hr)?
A: The value was 0.78 ± 0.02 % Dose/g.

Q: And the “mean % administered dose per gram, Plasma” value ([2]; 24 hr)?
A: The value was 0.58 ± 0.01 % Dose/g.

Q: What about the “mean % administered dose per gram, Plasma” value ([2]; 48 hr) of the same compound?
A: The value was 0.42 ± 0.03 % Dose/g.

Q: What about the “mean % administered dose per gram, Tumor” value ([2]; 24 hr) of the same compound?
A: Its value is 0.43 ± 0.05 % Dose/g.

Q: What about the “mean % administered dose per gram, Tumor” value ([2]; 48 hr) of the same compound?
A: The value was 0.39 ± 0.01 % Dose/g.
